Legend:
[1] = tested on: rice; assay: Test B pre-/postemergence herbicide test; format: in vivo, Oryza sativa; conditions: preemergence, 125 g ai/ha; 0 to 100 scale, 0 is no effect, 100 is complete control
Summary of the method: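 Greenhouse pot assay with simultaneous preemergence (treated seed) and postemergence (2–18 cm seedlings) applications of surfactant-containing, non-phytotoxic solvent formulations. Response scored visually 13–15 days later on a 0–100 scale, 100 meaning complete control.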

[2] = tested on: cocklebur; assay: Test B pre-/postemergence herbicide test; format: in vivo, Xanthium strumarium; conditions: for Plant response rating, Cocklebur: preemergence; for Cocklebur plant response rating: postemergence, visual rating, scale 0 (no effect) to 100 (complete control)
Summary of the method: (§1)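 Herbicidal effect was judged by eye on a 0–100 scale after plants stood 13 to 15 days in the greenhouse following pre- or postemergence treatment with surfactant-containing formulations.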

[3] = tested on: ducksalad; assay: Test B flooded paddy test; format: in vivo, Heteranthera limosa; conditions: 1000 g ai/ha, visual rating, scale 0 to 100 (0 no effect, 100 complete control), 13 to 15 days
Summary of the method: (§2)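 Treated at 2-leaf (paddy) or 1–4-leaf, 2–18 cm (postemergence); greenhouse 13–15 d; visual score vs control, 0 none to 100 complete control; dash = not tested.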

[4] = tested on: velvetleaf; assay: Test A pre-/postemergence herbicide test; format: in vivo, Abutilon theophrasti
Summary of the method: (§3)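 Both application timings were run together: directed soil spray over freshly planted seeds in sandy loam, and runoff spray onto 2–10 cm seedlings. Evaluation after ~10 days in greenhouse used a 0–100 visual scale versus untreated controls.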

[5] = tested on: Surinam grass; assay: Test B pre-/postemergence herbicide test; format: in vivo, Urochloa decumbens; conditions: for Plant response rating, Surinam Grass: preemergence; for Surinam Grass plant response rating: postemergence, visual rating, scale 0 (no effect) to 100 (complete control)
Summary of the method: (§4)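 Plants compared with untreated controls 13–15 days post-treatment and given a visual 0–100 injury score. Applications: preemergence to seeds; postemergence at 1- to 4-leaf (2–18 cm); paddy species flooded, 2-leaf stage. Vehicle non-phytotoxic, surfactant included.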

[6] = tested on: morningglory; assay: Test A pre-/postemergence herbicide test; format: in vivo, Ipomoea spp.
Summary of the method: as §3

[7] = tested on: blackgrass; assay: Test B postemergence herbicide test; format: in vivo, Alopecurus myosuroides; conditions: postemergence, visual rating, scale 0 (no effect) to 100 (complete control)
Summary of the method: as §2

[8] = tested on: large crabgrass; assay: Test B pre-/postemergence herbicide test; format: in vivo, Digitaria sanguinalis; conditions: for Plant response rating, Crabgrass, Large: preemergence; for Crabgrass, Large plant response rating: postemergence, visual rating, scale 0 (no effect) to 100 (complete control)
Summary of the method: as §4

[9] = tested on: wheat; assay: Test B postemergence herbicide test; format: in vivo, Triticum aestivum; parameters: key to Wheat plant response rating: 0 = no effect, 100 = complete control; conditions: postemergence, visual rating, scale 0 (no effect) to 100 (complete control)
Summary of the method: (§5)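 After treating 2-leaf paddy plants or 2–18 cm postemergence plants (1 to 4 leaves) with formulated chemical, researchers kept them in a greenhouse for 13–15 days. Effects were judged visually versus controls: 0 indicates none, 100 total control.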

[10] = tested on: barnyardgrass; assay: Test A pre-/postemergence herbicide test; format: in vivo, Echinochloa crus-galli
Summary of the method: as §3

[11] = tested on: wild oat; assay: Test B postemergence herbicide test; format: in vivo, Avena fatua; conditions: postemergence, visual rating, scale 0 (no effect) to 100 (complete control)
Summary of the method: as §5

[12] = tested on: redroot pigweed; assay: Test A pre-/postemergence herbicide test; format: in vivo, Amaranthus retroflexus
Summary of the method: as §3

[13] = tested on: giant foxtail; assay: Test A pre-/postemergence herbicide test; format: in vivo, Setaria faberi
Summary of the method: as §3

[14] = tested on: large crabgrass; assay: Test A pre-/postemergence herbicide test; format: in vivo, Digitaria sanguinalis
Summary of the method: as §3

[15] = tested on: barnyardgrass; assay: Test B flooded paddy test; format: in vivo, Echinochloa crus-galli; conditions: 1000 g ai/ha, visual rating, scale 0 to 100 (0 no effect, 100 complete control), 13 to 15 days
Summary of the method: as §2

[16] = tested on: rice; assay: Test B flooded paddy test; format: in vivo, Oryza sativa; conditions: 1000 g ai/ha, visual rating, scale 0 to 100 (0 no effect, 100 complete control), 13 to 15 days
Summary of the method: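 Formulated test chemicals went onto postemergence plants measuring 2 to 18 cm, at one to four leaves. For the paddy assay, species had reached two leaves. Scoring took place 13–15 days later by eye, relative to untreated plants, using 0 for no effect up to 100 for full control.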

[17] = tested on: small flower umbrella sedge; assay: Test B flooded paddy test; format: in vivo, Cyperus difformis; conditions: 1000 g ai/ha, visual rating, scale 0 to 100 (0 no effect, 100 complete control), 13 to 15 days
Summary of the method: as §2

[18] = tested on: giant foxtail; assay: Test B pre-/postemergence herbicide test; format: in vivo, Setaria faberi; conditions: for Plant response rating, Foxtail, Giant: preemergence; for Foxtail, Giant plant response rating: postemergence, visual rating, scale 0 (no effect) to 100 (complete control)
Summary of the method: as §4

[19] = tested on: morningglory; assay: Test B pre-/postemergence herbicide test; format: in vivo, Ipomoea coccinea; conditions: for Plant response rating, Morningglory: preemergence; for Morningglory plant response rating: postemergence, visual rating, scale 0 (no effect) to 100 (complete control)
Summary of the method: as §1

[20] = tested on: barnyardgrass; assay: Test B pre-/postemergence herbicide test; format: in vivo, Echinochloa crus-galli; conditions: for Plant response rating, Barnyardgrass: preemergence; for Barnyardgrass plant response rating: postemergence, visual rating, scale 0 (no effect) to 100 (complete control)
Summary of the method: as §1

[21] = tested on: lambsquarters; assay: Test B pre-/postemergence herbicide test; format: in vivo, Chenopodium album; conditions: for Plant response rating, Lambsquarters: preemergence; for Lambsquarters plant response rating: postemergence, visual rating, scale 0 (no effect) to 100 (complete control)
Summary of the method: as §4

[22] = tested on: velvetleaf; assay: Test B pre-/postemergence herbicide test; format: in vivo, Abutilon theophrasti; conditions: for Plant response rating, Velvetleaf: preemergence; for Velvetleaf plant response rating: postemergence, visual rating, scale 0 (no effect) to 100 (complete control)
Summary of the method: as §4

[23] = tested on: pigweed; assay: Test B pre-/postemergence herbicide test; format: in vivo, Amaranthus retroflexus; conditions: for Plant response rating, Pigweed: preemergence; for Pigweed plant response rating: postemergence, visual rating, scale 0 (no effect) to 100 (complete control)
Summary of the method: as §4

[24] = tested on: corn; assay: Test B pre-/postemergence herbicide test; format: in vivo, Zea mays; conditions: for Plant response rating, Corn: preemergence; for Corn plant response rating: postemergence, visual rating, scale 0 (no effect) to 100 (complete control)
Summary of the method: as §4

[25] = 500 g ai/ha, visual rating 0-100, 0 no effect, 100 complete control
[26] = 125 g ai/ha, 0 to 100 scale, 0 is no effect, 100 is complete control
[27] = Postemergence, 500 g ai/ha, 0 to 100 scale, 0 no effect, 100 complete control
[28] = Postemergence, 2000 g ai/ha, 0 to 100 scale, 0 no effect, 100 complete control
[29] = Preemergence, 2000 g ai/ha, visual rating, 0 to 100 scale (0 no effect, 100 complete control)
[30] = preemergence, 500 g ai/ha, visual injury, 0 to 100 scale (0 no effect, 100 complete control)
[31] = Preemergence, 500 g ai/ha, visual rating, 0 to 100 scale (0 no effect, 100 complete control)

CC(C)NS(=O)(=O)c1cccc(NC(=O)c2cc(C(C)(C)C)nn2C)c1 [Compound 124]
90: Plant response rating, Pigweed [23, 25]
70: Ducksalad plant response rating [3] | Lambsquarters plant response rating ([21]; 500 g ai/ha) | Pigweed plant response rating ([23]; 500 g ai/ha)
30: Pigweed plant response rating [12, 27] | Crabgrass, Large plant response rating [14, 31] | Lambsquarters plant response rating ([21]; 125 g ai/ha) | Plant response rating, Pigweed [23, 26]
20: Surinam Grass plant response rating ([5]; 500 g ai/ha) | Pigweed plant response rating [12, 30] | Pigweed plant response rating ([23]; 125 g ai/ha)
0: Plant response rating, Rice [1] | Plant response rating, Cocklebur [2, 25] | Cocklebur plant response rating ([2]; 125 g ai/ha) | Plant response rating, Cocklebur [2, 26] | Velvetleaf plant response rating [4, 30] | Plant response rating, Surinam Grass [5, 26] | Plant response rating, Morningglory [6, 28] | Blackgrass plant response rating ([7]; 125 g ai/ha) | Blackgrass plant response rating ([7]; 500 g ai/ha) | Plant response rating, Crabgrass, Large [8, 25] | Plant response rating, Crabgrass, Large [8, 26] | Wheat plant response rating ([9]; 125 g ai/ha) | Wheat plant response rating ([9]; 500 g ai/ha) | Barnyardgrass plant response rating [10, 27] | Plant response rating, Barnyardgrass [10, 28] | Barnyardgrass plant response rating [10, 31] | Oat, Wild plant response rating ([11]; 125 g ai/ha) | Foxtail, Giant plant response rating [13, 27] | Plant response rating, Foxtail, Giant [13, 28] | Foxtail, Giant plant response rating [13, 31] | Foxtail, Giant plant response rating [13, 29] | Barnyardgrass plant response rating [15] | Rice plant response rating [16] | Sedge, Umbrella plant response rating [17] | Foxtail, Giant plant response rating ([18]; 125 g ai/ha) | Plant response rating, Foxtail, Giant [18, 26] | Plant response rating, Morningglory [19, 25] | Morningglory plant response rating ([19]; 125 g ai/ha) | Plant response rating, Morningglory [19, 26] | Barnyardgrass plant response rating ([20]; 125 g ai/ha) | Barnyardgrass plant response rating ([20]; 500 g ai/ha) | Plant response rating, Barnyardgrass [20, 26] | Plant response rating, Lambsquarters [21, 26] | Plant response rating, Velvetleaf [22, 25] | Velvetleaf plant response rating ([22]; 125 g ai/ha) | Plant response rating, Velvetleaf [22, 26] | Plant response rating, Corn [24, 25] | Corn plant response rating ([24]; 125 g ai/ha) | Plant response rating, Corn [24, 26]
10: Cocklebur plant response rating ([2]; 500 g ai/ha) | Velvetleaf plant response rating [4, 27] | Plant response rating, Velvetleaf [4, 28] | Plant response rating, Surinam Grass [5, 25] | Surinam Grass plant response rating ([5]; 125 g ai/ha) | Crabgrass, Large plant response rating ([8]; 125 g ai/ha) | Crabgrass, Large plant response rating ([8]; 500 g ai/ha) | Barnyardgrass plant response rating [10, 29] | Oat, Wild plant response rating ([11]; 500 g ai/ha) | Crabgrass, Large plant response rating [14, 27] | Plant response rating, Crabgrass, Large [14, 28] | Plant response rating, Foxtail, Giant [18, 25] | Foxtail, Giant plant response rating ([18]; 500 g ai/ha) | Morningglory plant response rating ([19]; 500 g ai/ha) | Plant response rating, Barnyardgrass [20, 25] | Velvetleaf plant response rating ([22]; 500 g ai/ha) | Corn plant response rating ([24]; 500 g ai/ha)
80: Plant response rating, Lambsquarters [21, 25]
15: Velvetleaf plant response rating [4, 29] | Morningglory plant response rating [6, 29] | Crabgrass, Large plant response rating [14, 29]
40: Plant response rating, Pigweed [12, 28]
75: Pigweed plant response rating [12, 29]
5: Morningglory plant response rating [6, 27] | Morningglory plant response rating [6, 31]

Source: patent US20060069132A1, “Azolecarboxamide herbicides” (priority 2004, published 2006)
